Laboratory results taken from US20240091214A1, “LONAFARNIB FOR USE IN THE TREATMENT OF VIRAL INFECTIONS” (TWINCORE ZENTRUM FÜR EXPERIMENTELLE UND KLINISCHE …, priority 2021, published 2024).
Like-named read-outs stand apart in the source and are kept apart here.

How the values were obtained:
HRSV-B virus = assay: HRSV-B infection assay, number of infected cells; type: cell-based; settings: % compared to DMSO control (FIG. 9)
Text: However, […].

[1] = animals, formulated in crystalline forms; cited from earlier work
[2] = tested on: Hepatitis Delta Virus (HDV); assay: Production of infectious Hepatitis Delta Virus in transfected Huh7-hNTCP cells; type: cell-based; settings: increasing concentrations (FIG. 8)
Method: 16 h later medium was exchanged and the cells were then cultured in absence or presence of 1% DMSO or increasing concentrations of lonafarnib or tipifarnib; (A) 10 days post transfection, translation of the HDV viral genome in the cells was confirmed by immunofluorescence and percentage of positive cells was calculated; (B) production of infectious progeny HDV was assessed by incubating serial dilutions of their supernatants on naïve Huh7-hNTCP, followed by staining for the HD-Ag—dashed lines indicates the detection threshold of the assay.

HRSV = HRSV infection of differentiated BCi-NS1.1 air-liquid-interface cultures, viral load by qRT-PCR; type: cell-based, human respiratory syncytial virus (HRSV); settings: differentiated human airway epithelial cells (BCi-NS1.1), HBSS rinsing fluid and harvested cells, different doses and time points (FIG. 7)
Text: Shown are viral loads measured by qRT-PCR after HRSV infection in differentiated BCi-NS1.1 cells and treatment with lonafanib at different doses. right: viral load in HBSS rinsing fluid at different time points after infection. left: viral load of harvested cells, also at different time points after infection.
Then, the antiviral effect of lonafarnib against HRSV was shown in differentiated human airway epithelial cells. Therefore, BCi NS1.1 cells were differentiated and used in so-called “air-liquid-interface” cultures to form a pseudo-stratified lung epithelium. The cells were then infected with HRSV and treated with lonafarnib at different concentrations. The compounds were added to the medium from the basolateral pole of the cell (“liquid interface”, homologous to the blood stream) as well as administered apically (homologous to local treatment via inhalation). At different time points post infection, the cell surface (“air interface”, apical side of the cell culture, homologous to the lumen of the lung) was rinsed with HBSS to remove released viruses from the cell surface. The viral load in the HBSS rinsing fluid was determined by qRT-PCR. Also, at each time point cells were lysed and the virus load in the cell extract was determined by qRT-PCR. (FIG. 7)

[3] = tested on: HRSV luciferase reporter virus; assay: HRSV luciferase reporter virus infection assay (first and second round of infection); type: cell-based, human respiratory syncytial virus (HRSV); settings: for IC50: human respiratory syncytial virus, 24 h
Text: The dose-response relationship of lonafarnib to the HRSV reporter virus is shown on the right. Below are the IC50 and IC90 values of the first round of infection and the second round of infection, respectively, and the 50% cytotoxic concentration of lonafarnib (CC50).
The chemical structure of the farneslytransferase inhibitors lonafarnib and tipifarnib is shown above. The dose-response relationship of these agents against the HRSV luciferase reporter virus is shown below.
Efficiency of HRSV infection-inhibition by lonafarnib was investigated by a series of infection assays. In the first round of infection, the effect of lonafarnib on the virus' cell entry, which includes RNA transcription, translation and replication up to 24 hours after infection, was investigated. In the second round of infection, the cell culture supernatant was harvested and transferred to naive cells at 24 h after primary infection. In these cells, again 24 h later, the infection efficiency was determined using the luciferase reporter. In this way, the efficiency was analyzed over a longer period of time, including the spread of the virus and the re-infection of cells. The IC50 values were determined at 0.02 μM (round 1) and 0.004 μM (round 2). (FIG. 2)
In a further trial, the effect of lonafarnib compared to the farnesyltransferase inhibitor tipifarnib on HRSV-infected cell culture was then analyzed and compared.

[4] = tested on: clinical HRSV isolate HRSV H01 ON1; assay: Plaque reduction test with clinical HRSV isolate; type: cell-based, human respiratory syncytial virus (HRSV); settings: clinical HRSV H01 ON1 isolate (FIG. 4)
Method: The respective concentrations of lonafarnib, tipifarnib and DMSO (control; final concentration 1%) administered to the cells are indicated on the respective well.
To confirm the antiviral effect of lonafarnib, an infection assay was performed with the clinical HRSV isolate HRSV H01 ON1. The infection efficiency was assessed in the plaque reduction test, i.e. independently of an indirect reporter gene measurement. […] (FIG. 4)

[5] = tested on: HRSV virus population with resistance to a fusion inhibitor (mutations within the F protein); assay: Infection assay with HRSV population resistant to an HRSV fusion inhibitor, intracellular FACS staining; type: cell-based, human respiratory syncytial virus (HRSV); settings: fusion inhibitor adapted virus compared with DMSO adapted virus (FIG. 6)
Method: The most significant reduction of infected cells is shown in the DMSO adapted virus population by administration of lonafarnib. Dark grey: DMSO adapted virus; light grey: fusion inhibitor adapted virus.
Further, the efficacy of lonafarnib on HRSV virus population that had previously developed resistance to an HRSV fusion inhibitor was investigated. The effectiveness of HRSV infection (number of infected cells) was determined by intracellular FACS staining. […] The HRSV virus population with resistance to a fusion inhibitor was also less susceptible to inhibition by lonafarnib.

[6] = cited from earlier work
HRSV H01 ON1 isolate = assay: Infection assay with HRSV H01 ON1 isolate, intracellular FACS staining against a virus own protein; type: cell-based, human respiratory syncytial virus (HRSV)
Method: Both graphs show data from analysing the viral infection efficiency by intracellular flow cytometry staining against a virus own protein. […] MFI: mean fluorescence intensity
Another infection assay was carried out with the HRSV H01 ON1 isolate. The analysis/quantification of the viral infection efficiency was carried out by intracellular FACS staining against a virus own protein. […] The amount of viral proteins in the infected cells was […] by the administration of lonafarnib.

NC(=O)N1CCC(CC(=O)N2CCC([C@H]3c4ncc(Br)cc4CCc4cc(Cl)cc(Br)c43)CC2)CC1 [lonafarnib]
inhibition of HRSV-B infection (number of infected cells) (HRSV-B virus): selectively and efficiently inhibits the number of infected cells | bioavailability [1]: low and variable | inhibition of Hepatitis Delta infections [2]: equally inhibit Hepatitis Delta infections | inhibition of HRSV infection (viral load by qRT-PCR) (HRSV): inhibits HRSV infection | suppression of HRSV infection ([3]; HRSV-infected cell culture, dose-response, comparison of lonafarnib and tipifarnib (FIG. 3)): highly effective | IC50 ([3]; read-out: IC50, first round of infection): 20 nM | IC50 ([3]; read-out: IC50, second round of infection): 4 nM | plaque formation (plaque size and number) [4]: reduced plaque size and number in a dose-dependent manner | activity against fusion inhibitor-resistant HRSV population (number of infected cells) [5]: reduced activity | stability in solution ([6]; acidic or basic conditions): will hydrolyze | water solubility [6]: poorly water soluble | stability in solution ([6]; neutral pH): stable at neutral pH | stability in the solid state ([6]; solid state, thermal): thermally stable | number of infected cells (HRSV H01 ON1 isolate; intracellular FACS staining (FIG. 5 left)): reduced the number of infected cells in a dose-dependent manner | amount of viral proteins in the infected cells (MFI) (HRSV H01 ON1 isolate; intracellular FACS staining (FIG. 5 right)): not reduced
